Reference: patent US20230302025A1, “METHODS FOR MAINTAINING MICROVASCULAR INTEGRITY” (SCISPARC LTD., priority 2020, published 2023)
“Also recorded” adds a separate entry of the source.

Key:
mTBI rats [1] = test: Neurological scoring / neurological complications after repeated mild TBI; type: in vivo, Sprague-Dawley rats; conditions: daily injection of THC 0.002 mg/kg i.p.; 60% without THC
mTBI rats [2] = test: Electrocorticographic recording of paroxysmal slow wave events (PSWEs) in repeated mild TBI rat model; type: in vivo, Sprague-Dawley rats
[3] = test system: cortical microvasculature (BBB) of mTBI rats; test: Intravital microscopy (open window, fluorescent angiography) of cortical microvascular permeability in repeated mild TBI rat model; type: in vivo, Sprague-Dawley rats; conditions: repeated THC 0.002 mg/kg i.p.; 6-8 days after first injury; vs vehicle-injected controls
[4] = test system: blood-brain barrier (BBB) of mTBI rats; test: Contrast-enhanced MRI of blood-brain barrier permeability in repeated mild TBI rat model; type: in vivo, Sprague-Dawley rats
[5] = intravenous, humans; cited from earlier work

| SMILES | risk for neurological complications (mTBI rats [1]) | number of PSWEs (mTBI rats [2]; repeated THC 0.002 mg/kg i.p., ECoG 3-4 weeks following injury) | number of PSWEs (mTBI rats [2]; single THC dose (THC1) 0.002 mg/kg i.p. after first impact, vs controls, FIG. 3B) | cortical microvascular (BBB) permeability [3] | % of brain volume with pathological (damaged) BBB ([4]; repeated (daily, after each impact) THC 0.002 mg/kg i.p., CE-MRI after rmTBI, vs TBI vehicle) | % of brain volume with pathological voxels compared to non-injured controls ([4]; repeated THC 0.002 mg/kg i.p., CE-MRI, FIG. 1D) | effect on trauma-induced BBB breakdown ([4]; repeated THC, data from both CE-MRI and intravital microscopy) | estimated lethal dose [5] |
| --- | --- | --- | --- | --- | --- | --- | --- | --- |
| CCCCCc1cc(O)c2c(c1)OC(C)(C)[C@@H]1CCC(C)=C[C@@H]21 [THC, Δ9-tetrahydrocannabinol] | 35% | mild reduction; also recorded: lower occurrence | significant increase | lower; also recorded: reduced | Moderate decrease | not different compared to controls | mild protective and therapeutic effect | – |
| CCCCCc1cc(O)c2c(c1)OC(C)(C)[C@@H]1CCC(C)=C[C@@H]21 [dronabinol, (−)-trans-[…]9-tetrahydrocannabinol] | – | – | – | – | – | – | – | 30 mg/kg |
